Experimental findings from ChEMBL document CHEMBL1126294, “Benz[f]isoquinoline analogues as high-affinity sigma ligands” (J Med Chem, 1992) are described below.

The term IC50 denotes the concentration at which inhibition is half-maximal. Read a low IC50 as greater potency in that assay.

Molecules are shown by their SMILES.

Chain of D(2) dopamine receptor (P61169 whole entry): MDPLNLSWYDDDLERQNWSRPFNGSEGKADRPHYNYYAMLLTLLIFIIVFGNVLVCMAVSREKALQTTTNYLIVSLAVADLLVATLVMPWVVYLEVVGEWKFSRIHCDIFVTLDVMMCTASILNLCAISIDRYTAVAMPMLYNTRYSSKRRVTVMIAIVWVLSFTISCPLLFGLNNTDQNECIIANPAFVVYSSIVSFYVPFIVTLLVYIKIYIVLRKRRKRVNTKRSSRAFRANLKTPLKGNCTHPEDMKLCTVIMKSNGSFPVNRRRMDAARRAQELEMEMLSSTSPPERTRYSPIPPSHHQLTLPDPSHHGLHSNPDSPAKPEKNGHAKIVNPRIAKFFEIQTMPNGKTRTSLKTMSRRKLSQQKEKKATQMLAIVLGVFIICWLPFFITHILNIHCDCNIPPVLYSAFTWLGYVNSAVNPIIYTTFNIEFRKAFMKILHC

This experiment addresses D(2) dopamine receptor (Rattus norvegicus, UniProt P61169). The experiment is described as follows: Inhibition of [3H](-)-sulpiride binding to rat striatum dopamine receptor D2. The class given is tissue-based.
The molecule `CCCCN1CCC2c3ccccc3CCCC2C1` (configuration not stated) had an IC50 of 166 nM.
With `CCCCN1CC[C@H]2c3ccccc3CC[C@H]2C1`, the IC50 is 145 nM.
Under `O=[N+]([O-])c1ccc(CCN2CC[C@H]3c4ccccc4CC[C@H]3C2)cc1` stands 589 nM; under `CCCCN1CC[C@@H]2c3ccccc3CC[C@H]2C1`, 389 nM; under `c1ccc2c(c1)CC[C@H]1CN(C3CCCCC3)CC[C@@H]21`, 2690 nM.
Under `CCCCN1CCC2=C(Cc3ccccc32)C1` stands 60.3 nM; under `c1ccc2c(c1)CC[C@H]1CN(C34C[C@H]5C[C@@H](C3)C[C@@H](C4)C5)CC[C@@H]21`, more than 10000 nM; under `c1ccc(CCN2CC[C@H]3c4ccccc4CC[C@H]3C2)cc1`, 162 nM.
In the case of `COc1ccc(CN2CC[C@H]3c4ccccc4CC[C@H]3C2)cc1` it was 35.5 nM; in that of `CCCCN1CCC2=C(CCc3ccccc32)C1`, 63.1 nM; in that of `CCCCN1CCC2=C(CCCc3ccccc32)C1`, 61.7 nM.
In turn, `CC(C)(C)c1ccc(CN2CC[C@H]3c4ccccc4CC[C@H]3C2)cc1` gave an IC50 of 288 nM.
